Reference: patent US20180280450A1, “METHOD OF PROMOTING IMMUNE HEALTH USING THE WATER-SOLUBLE COMPONENT FROM GENUS EUGLENA ORGANISM” (KEMIN INDUSTRIES, INC., priority 2017, published 2018)

Experiments:
T-cells = test: Immune cell activation by flow cytometry (CD69/CD25) on T-cells in PBMC cultures; assay type: cell-based, human; conditions: 24-hour PBMC cultures
Method: (§1) Human peripheral blood mononuclear cell (PBMC) cultures were used for this testing. A set of cultures was left untreated as negative control cultures for immune activation. Triplicate sets of cultures were treated with serial dilutions of the test product. The inflammatory bacterial lipopolysaccharide LPS from E. coli was used as a positive control for activation. The cultures were incubated for 24 hours, after which the cells and the culture supernatants were harvested and used to monitor the reactions in each culture. […]
(§2) The cells were stained with a combination of monoclonal antibodies to monitor activation status, and analyzed by multi-parameter flow cytometry, using an acoustic dual-laser Attune® flow cytometer. […]
(§3) Immune cell activation was analyzed after the cell viability testing. […] The cells were stained with a combination of monoclonal antibodies to monitor activation, and analyzed by multi-parameter flow cytometry, using an acoustic dual laser Attune® flow cytometer. […]
(§4) The cellular staining for activation, performed using a fluorescently labelled monoclonal antibody to the CD69 and CD25 activation markers, allowed researchers to measure cellular activation by fluorescence intensity. […]

[1] = system: CD69/CD25 double positive lymphocytes; test: CD69/CD25 double positive lymphocytes by flow cytometry in PBMC cultures; assay type: cell-based, human; conditions: 24-hour PBMC cultures, dose not specified
Method: as §1, §2, §3, §4

non-T non-NK lymphocytes = test: Immune cell activation by flow cytometry (CD69/CD25) on non-T non-NK lymphocytes in PBMC cultures; assay type: cell-based, human; conditions: 24-hour PBMC cultures
Method: as §1, §2, §3, §4

monocytes = test: Immune cell activation by flow cytometry (CD69) on monocytes in PBMC cultures; assay type: cell-based, human; conditions: dose not specified
Method: as §1, §2, §3, §4

human immune cells = test: In vitro bioassay screening of Test Products in cell cultures of human immune cells (overall summary); assay type: cell-based; conditions: sample preparation after 0.2 micron filtration
Method: Bioassay screening of nutraceutical ingredients and one blend were performed to evaluate their potency and mechanisms of action. The screening involved testing in cell cultures involving human immune cells. As part of this process, selected immune ingredients currently on the market were compared for similarities and differences of mechanisms of action, as well as efficacy (active dose comparison). Eight Test Products labeled Test Products A-H, as noted in the various tables and explained below were employed in this study.
The water-soluble Test Products were prepared by taking 0.25 grams of powder into 5 mL of physiological saline. The suspension was incubated under gentle agitation for one hour, after which any remaining solids were removed by centrifugation. Insoluble, particulate Test Products were prepared by taking 0.5 grams of powder into 3 mL of physiological saline. One (1) mL ceramic beads (200 uM zirconium) were added, and bead milling performed by 10 cycles of repeated 60-second pulsing (vortex high speed, 60 one (1) second pulses) with placement of samples in an ice-bath between cycles. Subsequently, seven (7) mL of physiological saline was then added to bring the samples to a 50 mg/mL final concentration. […]

Solubility in water = assay type: physicochemical

solubility in water (Solubility in water): completely insoluble
Substance: paramylon [Test Product D]
CD25 expression on T-cells (T-cells; at lower doses): varying degrees of suppressing CD25 expression
CD69 expression on T-cells (T-cells; figures show T-cells): only exerted minor effects
number of CD69/CD25 double-positive lymphocytes [1]: only exerted minor, if any, effects
CD69 expression on non-T non-NK cells (non-T non-NK lymphocytes; dose not specified (FIG. 19)): only exerted minor, if any, effects
CD25 expression on non-T non-NK cells (non-T non-NK lymphocytes; FIG. 21 shows CD25): only exerted minor, if any, effects
CD69 expression on monocytes (monocytes): only exerted minor, if any, effects
activity in the in vitro screen (overall) (human immune cells): essentially no activity
activity in the in vitro screen (overall) (human immune cells; listed as Sample D): essentially inactive
